According to patent US10175228B2, “Method of using transmembrane channel-like protein 6 (TMC6) protein to identify substances affecting salty taste” (priority 2016, dated 2019):
Where a name gives a salt, the structure may show the parent alone.

What follows are compounds tested against T1, mouse TMC6 protein (Mus musculus, UniProt Q7TN60, A788T) (assay: Calcium imaging (YC2.60 FRET) of CHO-K1 cells expressing the mouse TMC6 gene). Conditions: one typical TMC6-expressing cell, stimulation with ATP stimulation solution (50 μM ATP), FIG. 13C.
T1 construct: expressed in transfected cells; host or cells: CHO-K1
T1 sequence (Q7TN60 1-810 A788T): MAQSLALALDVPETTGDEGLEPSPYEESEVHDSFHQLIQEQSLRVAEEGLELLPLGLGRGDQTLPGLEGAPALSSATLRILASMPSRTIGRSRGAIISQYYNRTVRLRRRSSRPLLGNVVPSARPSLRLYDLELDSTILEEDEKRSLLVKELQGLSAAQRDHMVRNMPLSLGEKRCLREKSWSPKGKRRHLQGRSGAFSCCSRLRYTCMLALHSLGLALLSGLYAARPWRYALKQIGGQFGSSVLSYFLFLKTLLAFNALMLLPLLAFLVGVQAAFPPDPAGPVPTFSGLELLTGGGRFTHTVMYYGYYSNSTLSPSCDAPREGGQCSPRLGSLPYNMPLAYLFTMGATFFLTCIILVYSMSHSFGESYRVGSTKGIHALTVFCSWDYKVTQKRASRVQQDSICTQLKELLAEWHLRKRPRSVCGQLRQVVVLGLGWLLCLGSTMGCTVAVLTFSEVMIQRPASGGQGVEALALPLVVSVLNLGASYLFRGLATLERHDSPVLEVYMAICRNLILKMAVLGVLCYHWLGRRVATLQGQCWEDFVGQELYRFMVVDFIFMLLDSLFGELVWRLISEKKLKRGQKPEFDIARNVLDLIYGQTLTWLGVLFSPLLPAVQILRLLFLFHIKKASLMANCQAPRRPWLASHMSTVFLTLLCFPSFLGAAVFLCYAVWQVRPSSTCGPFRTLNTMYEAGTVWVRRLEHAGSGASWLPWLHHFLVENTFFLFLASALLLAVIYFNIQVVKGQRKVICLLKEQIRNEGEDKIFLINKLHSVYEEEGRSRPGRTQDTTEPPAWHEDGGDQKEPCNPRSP
Assay type: cell-based
Experimental: CHO-K1 cells were transfected with TMC6-pcDNA3.1 or pcDNA3.1 in combination with YC2.60-pcDNA, to prepare TMC6-expressing cells (cells expressing the mouse TMC6 gene and the YC2.60 gene) and control cells (cells expressing the YC2.60 gene). The prepared cells were stimulated, and activation of the cells was measured. The procedure was as follows.
That is, first, CHO-K1 cells (ATCC) were inoculated into a culture dish having a diameter of 60 mm while adjusting the number of the cells to obtain 60% confluence, and cultured for 8 hr. As the medium, 5 mL of Ham's F-12K (Kaighn's) (Life Technologies) containing 10% fetal bovine serum (Life Technologies) was used. A 15 μL aliquot of FuGENE 6 (Promega) was added to 235 μL of Opti-MEM (Thermo Fisher Scientific), and incubated for 5 min at a room temperature. Then, 0.625 μg of TMC6-pcDNA3.1 and 2.5 μg of YC2.60-pcDNA were further added thereto, and incubated for 15 min at a room temperature. Then, the whole of the resultant mixture was dropped into the culture broth of the CHO-K1 cells, and the culture broth was mildly stirred. Then, the cells were further cultured for 18 hr under a condition of 5% CO2 at 37° C., to obtain the TMC6-expressing cells. Similarly, the control cells were obtained through transfection using pcDNA3.1 instead of TMC6-pcDNA3.1.
After the cultivation, the culture broth was removed. A low-concentration NaCl solution (27 mM NaCl, 1 mM KCl, 0.4 mM CaCl2, 0.2 mM MgCl2, 2 mM Hepes (pH7.3), 1 mM NaHCO3, 2 mM glucose, 2 mM sodium pyruvate, and 112 mM NMDG-Cl) was added to the culture dish, incubation was carried out statically for 5 min, and then, stimulation and observation of cells were started. First, the low-concentration NaCl solution was perfused for approximately 80 sec, to provide a ground state. Then, a high-concentration NaCl solution (135 mM NaCl, 1 mM KCl, 0.4 mM CaCl2, 0.2 mM MgCl2, 2 mM Hepes (pH7.3), 1 mM NaHCO3, 2 mM glucose, and 2 mM sodium pyruvate) was perfused instead of the low-concentration NaCl solution for approximately 60 sec, to stimulate the cells. […]

Row | Compound | relative FRET value (YFP/CFP) of the ROI-1 cell
1 | Nc1ncnc2c1ncn2[C@@H]1O[C@H](COP(=O)(O)OP(=O)(O)OP(=O)(O)O)[C@@H](O)[C@H]1O [ATP] | ≥ 1.3

What follows are compounds tested on wild-type C57BL/6J mouse and homo knockout mouse of the TMC6 gene (assay: Palatability tests for taste substances other than NaCl, two-bottle method). Conditions: 48 hr, taste substance aqueous solution versus control aqueous solution.
Assay type: in vivo
Experimental: <Taste Substance Aqueous Solutions>
MSG: 100 mM monosodium glutamate
MSG+IMP: 100 mM monosodium glutamate+1 mM inosinic acid
Citric Acid: 10 mM citric acid
Quinine HCl: 0.3 mM quinine hydrochloride
Fructose: 300 mM fructose

Row | Compound | difference in palatability or repellency between Tmc6 −/− mouse and wild-type mouse
2 | O=C(CO)[C@@H](O)[C@H](O)[C@H](O)CO [Fructose, fructose] | No difference
3 | N[C@@H](CCC(=O)O)C(=O)[O-].[Na+] [MSG, monosodium glutamate] | No difference
4 | OC[C@H]1O[C@@](CO)(O[C@H]2O[C@H](CO)[C@@H](O)[C@H](O)[C@H]2O)[C@@H](O)[C@@H]1O [Sucrose, sucrose] | No difference
5 | O=C(O)CC(O)(CC(=O)O)C(=O)O [Citric acid, citric acid] | No difference
6 | C=C[C@H]1C[N@@]2CC[C@H]1C[C@H]2[C@H](O)c1ccnc2ccc(OC)cc12 [Quinine HCl, quinine hydrochloride] | No difference
